These results are taken from PubChem BioAssay AID588631 (NMMLSC, 2011).

Broadly, the EC50 is the concentration needed to bring the measured effect to its halfway point.

Molecules are shown by their SMILES. Calls of active or inactive are those of the source. The rule behind the calls is not given here.

One assay has as its target Ras-related protein Rab7 wild type (dog). Kind of assay: blockers of fluorescent GTP uptake by Rab7 – biochemical, dog Rab7, bead multiplex flow cytometry, round 2, SAR follow-up (AID 588631). The following applies: Bead-based multiplex flow cytometry, at 100 µM (top of the series). In general terms: Flow cytometry measures light scatter and fluorescence of single cells or particles in a stream.
For `CC1(C)Cc2c(sc(NC(=S)Nc3ccccc3)c2C(=O)O)CO1`, the “percent response (remaining binding)” value is “inactive”.
Still for that read-out and setting: the entry for `CC(C)(C)C1Cc2c(sc(NC(=S)NC(=O)c3ccccc3)c2C(=O)O)CO1` (stereo not given) is “inactive”.

Still in this assay, the particulars now being: Bead-based multiplex flow cytometry, fluorescent GTP binding.
With `CC1(C)CCc2sc(NC(=S)NC(=O)c3ccccc3)c(C(=O)O)c2C1`, the EC50 was 46 nM.
Same read-out and setting: the figure for `COc1ccccc1C(=O)NC(=S)Nc1sc2c(c1C(=O)O)CC(C)(C)OC2` is 1120 nM; for `COc1ccc(C(=O)NC(=S)Nc2sc3c(c2C(=O)O)CC(C)(C)OC3)cc1` it is 221 nM; for `Cc1ccc(C(=O)NC(=S)Nc2sc3c(c2C(=O)O)CC(C)(C)OC3)cc1` it is 135 nM.
Still for that read-out and setting: the figure for `CC1(C)Cc2c(sc(NC(=S)NC(=O)c3cccc(Br)c3)c2C(=O)O)CO1` is 3990 nM; for `CC1(C)Cc2c(sc(NC(=S)NC(=O)c3ccc(F)cc3)c2C(=O)O)CO1` it is 95 nM; for `CC1(C)Cc2c(sc(NC(=S)NC(=O)c3ccccc3Br)c2C(=O)O)CO1` it is 1210 nM.
On the same count and under the same terms, the figure for `O=C(NC(=S)Nc1sc2c(c1C(=O)O)CC1(CCCC1)OC2)c1ccccc1` is 35 nM; for `Cc1cccc(C(=O)NC(=S)Nc2sc3c(c2C(=O)O)CC(C)(C)OC3)c1` it is 1160 nM.
As to `CC1(C)Cc2c(sc(NC(=S)NC(=O)c3ccco3)c2C(=O)O)CO1`, the EC50 is 74 nM.
For the molecule `CC1(C)Cc2c(sc(NC(=S)NC(=O)c3ccccc3F)c2C(=O)O)CO1`, the EC50 is 318 nM.
In the case of `CC1(C)Cc2c(sc(NC(=S)NC(=O)c3ccc(Br)cc3)c2C(=O)O)CO1`, the 50% effective concentration (EC50) was 496 nM.
The same measure, in the same setting: the figure for `CCC1(C)Cc2c(sc(NC(=S)NC(=O)c3ccccc3)c2C(=O)O)CO1` (stereo not given) is 37 nM; for `Cc1ccccc1C(=O)NC(=S)Nc1sc2c(c1C(=O)O)CC(C)(C)OC2` it is 411 nM.
On the same count and under the same terms, the figure for `CC1(C)Cc2c(sc(NC(=S)NC(=O)c3cccs3)c2C(=O)O)CO1` is 25 nM; for `CC1(C)Cc2c(sc(NC(=S)NC(=O)c3cccc(F)c3)c2C(=O)O)CO1` it is 415 nM; for `COc1cccc(C(=O)NC(=S)Nc2sc3c(c2C(=O)O)CC(C)(C)OC3)c1` it is 295 nM.
Same read-out and setting: under `CC1(C)Cc2c(sc(NC(=S)NC(=O)C3CCCCC3)c2C(=O)O)CO1` stands 809 nM.
